This passage reports Ki results from patent publication US5712300A, “Hydroxamic acid derivatives useful for the treatment of diseases related to connective tissue degradation” (priority 1997, dated 1998).

One may read the Ki as a measure of affinity in units of concentration, obtained from inhibition or displacement.

Assay type in all cases: biochemical
The target of one assay is T1, Collagenase (Homo sapiens, UniProt P03956).
T1 sequence (P03956 100-469): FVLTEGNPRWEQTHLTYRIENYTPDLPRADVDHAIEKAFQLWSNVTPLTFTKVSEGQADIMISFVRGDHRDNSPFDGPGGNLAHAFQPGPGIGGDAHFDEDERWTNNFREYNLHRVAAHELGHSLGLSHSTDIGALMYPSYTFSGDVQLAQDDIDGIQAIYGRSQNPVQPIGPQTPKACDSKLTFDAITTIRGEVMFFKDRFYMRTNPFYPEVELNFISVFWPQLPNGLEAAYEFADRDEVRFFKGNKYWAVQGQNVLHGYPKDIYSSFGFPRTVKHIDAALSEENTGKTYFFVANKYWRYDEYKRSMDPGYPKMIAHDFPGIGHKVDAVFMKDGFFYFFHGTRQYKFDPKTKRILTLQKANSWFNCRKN
In words: MMP inhibition by particle concentration fluorescence technique (collagenase). To be noted: pH 7.5; 15 min enzyme preincubation; substrate 1-3 h at room temperature; read-out: MMP Inhibition Constants, Collagenase Ki. How it is done:
(§1) Inhibitory activity is evaluated in one or more of the MMP enzymes (stromelysin, gelatinase, and collagenase) in vitro using a particle concentration fluorescence techniques. An inhibitor binds to MMP enzymes prevents the degradation of a substrate of stromelysin, gelatinase, or collagenase. The substrate is attached with a fluorescein and a biotin. The intact substrate then binds to an avidin-coated particle via the biotin moiety. Once the particle is washed and dried, a fluorescent signal is generated since the fluorescent group is attached to the particle. Without an inhibitor present, the substrate is degraded by MMP enzymes and the fluorescein group is removed, therefore, no fluorescent signal can be detected. Testing compounds are dissolved in DMSO to the desired concentration, then the solutions are diluted to 1:5 with MMP buffer (50 mM Tris-HCl, pH 7.5; 150 mM NaCl; 0.02% NAN3). Serial two-fold dilutions of each compound are prepared. A concentrated, activated enzyme solution is transferred into each plate of the testing compounds, and the mixture is incubated at room temperature for 15 minutes. Thawed MMP substrate is then added into all plates, and the plates are incubate in the dark for 1-3 hours at room temperature. At this point, the substrate mixture is reacted with 0.1% avidin-coated polystyrene particles.

The target of another assay is Gelatinase. In words: MMP inhibition by particle concentration fluorescence technique (gelatinase). As to conditions: pH 7.5; 15 min enzyme preincubation; substrate 1-3 h at room temperature; read-out: MMP Inhibition Constants, Gelatinase Ki. How it is done:
as §1

Another assay addresses Stromelysin (Homo sapiens, UniProt P08254). In words: MMP inhibition by particle concentration fluorescence technique (stromelysin). As to conditions: pH 7.5; 15 min enzyme preincubation; substrate 1-3 h at room temperature; read-out: MMP Inhibition Constants, Stromelysin Ki. An excerpt:
An inhibitor binds to MMP enzymes prevents the degradation of a substrate of stromelysin, gelatinase, or collagenase. The substrate is attached with a fluorescein and a biotin. The intact substrate then binds to an avidin-coated particle via the biotin moiety. Once the particle is washed and dried, a fluorescent signal is generated since the fluorescent group is attached to the particle. Without an inhibitor present, the substrate is degraded by MMP enzymes and the fluorescein group is removed, therefore, no fluorescent signal can be detected. […] Serial two-fold dilutions of each compound are prepared. A concentrated, activated enzyme solution is transferred into each plate of the testing compounds, and the mixture is incubated at room temperature for 15 minutes.

Chain of Stromelysin (P08254 100-477): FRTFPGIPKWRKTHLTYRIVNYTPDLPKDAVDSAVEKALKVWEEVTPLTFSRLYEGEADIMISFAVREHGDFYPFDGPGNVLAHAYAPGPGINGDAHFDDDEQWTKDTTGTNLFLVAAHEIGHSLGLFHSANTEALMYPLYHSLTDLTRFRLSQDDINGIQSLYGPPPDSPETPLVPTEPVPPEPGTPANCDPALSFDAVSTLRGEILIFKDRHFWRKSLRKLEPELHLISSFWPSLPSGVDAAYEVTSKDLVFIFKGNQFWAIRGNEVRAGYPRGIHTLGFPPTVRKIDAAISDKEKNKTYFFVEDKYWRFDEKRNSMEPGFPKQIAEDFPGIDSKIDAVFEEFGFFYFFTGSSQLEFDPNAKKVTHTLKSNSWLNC

With `CC(C)C[C@@]1([C@@H](CCN2C(=O)c3ccccc3C2=O)C(=O)NO)CCN(CCc2ccccc2)C1=O` (relative stereo) [Example 4, α-[2-(1,3-Dihydro-1,3-dioxo-2H-isoindol-2-yl)ethyl]-N-hydroxy-3-(2-methylpropyl)-2-oxo-1-(2-phenylethyl)-3-pyrrolidineacetamide], the Ki turned out to be 5700 nM at Collagenase and 204 nM at Gelatinase.

With `CC(C)C[C@@]1([C@@H](CCN2C(=O)c3ccc(N)cc3C2=O)C(=O)NO)CCN(CCc2ccccc2)C1=O` (relative stereo) [Example 9, α-[2-(5-Amino-1,3-dihydro-1,3-dioxo-2H-isoindol-2-yl)ethyl]-N-hydroxy-3-(2-methylpropyl)-2-oxo-1-(2-phenylethyl)-3-pyrrolidineacetamide], the Ki was 14300 nM on Collagenase, 780 nM on Gelatinase and 903 nM at Stromelysin.

For the molecule `CC(C)C[C@@]1([C@@H](CCN2C(=O)c3ccc([N+](=O)[O-])cc3C2=O)C(=O)NO)CCN(CCc2ccccc2)C1=O` (relative stereo) [Example 11, N-Hydroxy-3-(2-methylpropyl)-α-[2-(5-nitro-1,3-dihydro-1,3-dioxo-2H-isoindol-2-yl)ethyl]-2-oxo-1-(2-phenylethyl)-3-pyrrolidineacetamide], the figures for the Ki on Collagenase, on Gelatinase and on Stromelysin were 73 nM, 498 nM and 1020 nM, respectively.

On to `CC(C)C[C@@]1([C@@H](CCN2C(=O)c3ccc(F)cc3C2=O)C(=O)NO)CCN(CCc2ccccc2)C1=O` (relative stereo) [Example 14, α-[2-(5-Fluoro-1,3-dihydro-1,3-dioxo-2H-isoindol-2-yl)ethyl]-N-hydroxy-3-(2-methylpropyl)-2-oxo-1-(2-phenylethyl)-3-pyrrolidineacetamide], for which the Ki was determined as 533 nM on Collagenase, 97 nM on Gelatinase and 46 nM at Stromelysin.

Regarding `CC(C)C[C@@]1([C@@H](CCCN2C(=O)c3ccccc3C2=O)C(=O)NO)CCN(CCc2ccccc2)C1=O` (relative stereo) [Example 15], the Ki at Collagenase was 21300 nM; on Gelatinase, 782 nM; at Stromelysin, 188 nM.

For `CC(C)C[C@@]1([C@@H](CN2C(=O)c3ccccc3C2=O)C(=O)NO)CCN(CCc2ccccc2)C1=O` (relative stereo) [Example 16, α-[2-(1,3-Dihydro-1,3-dioxo-2H-isoindol-2-yl)methyl]-N-hydroxy-3-(2-methylpropyl)-2-oxo-1-(2-phenylethyl)-3-pyrrolidineacetamide], the Ki was 14200 nM at Collagenase, 2870 nM at Gelatinase and 92.4 nM on Stromelysin.

Regarding `CC(C)C[C@@]1([C@@H](CCN2C(=O)c3ccccc3C2=O)C(=O)NO)CCN(Cc2ccccc2)C1=O` (relative stereo) [Example 22, α-[2-(1,3-Dihydro-1,3-dioxo-2H-isoindol-2-yl)ethyl]-N-hydroxy-3-(2-methylpropyl)-2-oxo-1-(phenylmethyl)-3-pyrrolidineacetamide], the Ki at Collagenase amounted to 2070 nM; at Gelatinase, 1300 nM; on Stromelysin, 1960 nM.

As to `CC(C)C[C@@]1([C@@H](CCN2C(=O)c3ccccc3C2=O)C(=O)NO)CCN(Cc2cccc(F)c2)C1=O` (relative stereo) [Example 25], the Ki at Collagenase was 1900 nM; at Gelatinase it was 1280 nM; at Stromelysin, 649 nM.

As for `CNC(=O)[C@H](Cc1ccccc1)N1CC[C@@](CC(C)C)([C@@H](CCN2C(=O)c3ccccc3C2=O)C(=O)NO)C1=O` (relative stereo) [Example 29, [R,R-(R*,R*)]-α^3-[2-(1,3-Dihydro-1,3-dioxo-2H-isoindol-2-yl)ethyl]-N^3-hydroxy-N^1-methyl-3-(2-methylpropyl)-2-oxo-α^1-(phenylmethyl)-1,3-pyrrolidinediacetamide], the values for the Ki on Collagenase, on Gelatinase and at Stromelysin were 484 nM, 981 nM and 570 nM, respectively.

`CC(C)C[C@@]1(CC(=O)NO)CCN([C@@H](Cc2ccccc2)C(=O)N2C[C@@H](C)N[C@@H](C)C2)C1=O` (relative stereo) [Example 56, [1(1S)-[1[R*(R*)],3α,5α]]-1-[2-(3,5-Dimethyl-1-piperazinyl)-2-oxo-1-(phenylmethyl)ethyl]-N-hydroxy-3-(2-methylpropyl)-2-oxo-3-pyrrolidineacetamide]: the inhibition constant Ki was 925 nM on Collagenase, 340 nM on Gelatinase and 2300 nM at Stromelysin.

Take `CC(C)C[C@@]1(CC(=O)NO)CCN([C@H](C(=O)NCC2CC2)C2CCCCC2)C1=O` (relative stereo) [Example 59, [S-(R*,R*)]-α^1 -Cyclohexyl-N^1-cyclopropylmethyl-N^3-hydroxy-3-(2-methylpropyl)-2-oxo-1,3-pyrrolidinediacetamide]: the results for the Ki on Collagenase, on Gelatinase and on Stromelysin were 3.3 nM, 11 nM and 230 nM, respectively.

Turning to `CC(C)C[C@@]1([C@@H](CCN2C(=O)c3ccc(C(F)(F)F)cc3C2=O)C(=O)NO)CCN(CCc2ccccc2)C1=O` (relative stereo) [Example 65, N-Hydroxy-3-(2-methylpropyl)-2-oxo-1-(2-phenylethyl)-α-[2-(5-trifluoromethyl-1,3-dihydro-1,3-dioxo-2H-isoindol-2-yl)ethyl]-3-pyrrolidineacetamide], the Ki turned out to be 510 nM at Collagenase, 227 nM on Gelatinase and 1050 nM on Stromelysin.

For `CC(C)C[C@@]1([C@@H](CCN2C(=O)c3ccccc3C2=O)C(=O)NO)CCN(CCCc2ccccc2)C1=O` (relative stereo) [Example 67, α-[2-(1,3-Dihydro-1,3-dioxo-2H-isoindol-2-yl)ethyl]-N-hydroxy-3-(2-methylpropyl)-2-oxo-1-(3-phenylpropyl)-3-pyrrolidineacetamide], the Ki at Collagenase was found to be 5000 nM; at Gelatinase, 36 nM; on Stromelysin it was 216 nM.

Regarding `CCOC(=O)N(CC[C@@H](C(=O)NO)[C@]1(CC(C)C)CCN(CCc2ccccc2)C1=O)C(=O)OCc1ccccc1` (relative stereo) [Example 70, Ethyl Phenylmethyl[4-(hydroxyamino)-3-[3-(2-methylpropyl)-2-oxo-1-(2-phenylethyl)-3-pyrrolidinyl]-4-oxobutyl]imidodicarbonate], the Ki on Collagenase was found to be 1200 nM; at Stromelysin, 194 nM.

Consider `CC(C)C[C@@]1([C@@H](CCNC(=O)c2cccc(F)c2)C(=O)NO)CCN(CCc2ccccc2)C1=O` (relative stereo) [Example 77, α-[2-[(3-Fluorobenzoyl)amino]ethyl]-N-hydroxy-3-(2-methylpropyl)-2-oxo-1-(2-phenylethyl)-3-pyrrolidineacetamide], for which the Ki was 68.5 nM at Collagenase and 146 nM on Stromelysin.

In the case of `CC(C)C[C@@]1([C@@H](CCN2C(=O)c3ccccc3C2=O)C(=O)NO)CCN(CCc2ccccc2)C1=O` [Example 5, (3S)-α-[2-(1,3-Dihydro-1,3-dioxo-2H-isoindol-2-yl)ethyl]-N-hydroxy-3-(2-methylpropyl)-2-oxo-1-(2-phenylethyl)-3-pyrrolidineacetamide], the Ki worked out at 4370 nM at Collagenase and 115 nM at Gelatinase.

Consider `CNC(=O)[C@H](CC1CCCCC1)N1CC[C@](CC(=O)NO)(CC(C)C)C1=O` [Example 33, [S-(R*,R*)]-α^1-(Cyclohexylmethyl)-N^3-hydroxy-N^1-methyl-3-(2-methylpropyl)-2-oxo-1,3-pyrrolidinediacetamide], for which, at Collagenase, the Ki was found to be 31 nM.

With `CC(C)C[C@@]1([C@H](CCN2C(=O)c3ccccc3C2=O)C(=O)NO)CCN(CCc2ccccc2)C1=O` [Example 71, [S-(R*,R*)]-1,3-Dihydro-N-hydroxy-α-[3-(2-methylpropyl)-2-oxo-1-(2-phenylethyl)-3-pyrrolidinyl]-1,3-dioxo-2H-isoindole-2-butanamide], the Ki at Collagenase was 98 nM.

In the case of `CC(C)C[C@@]1([C@@H](CCN2Cc3cc(F)c(F)cc3C2=O)C(=O)NO)CCN(CCc2ccccc2)C1=O` [Example 89, [R-(R*,S*)]-5,6-Difluoro-1,3-dihydro-N-hydroxy-α-[3-(2-methylpropyl)-2-oxo-1-(2-phenylethyl)-3-pyrrolidinyl]-1-oxo-2H-isoindole-2-butanamide], the Ki worked out at 146 nM on Gelatinase and 318 nM at Stromelysin.
